Experimental data taken from patent publication US20230391732A1, “MULTI-EFFICACY PYRAZINE COMPOUND, PREPARATION METHOD AND USE THEREOF” (SHENZHEN OLIVE BIOPHARMACEUTICALS CO., LTD, priority 2020, published 2023).

Columns and labels:
db/db mice [1] = experiment: Glucose and lipid metabolism in db/db mice, 56 d administration; format: in vivo; details: TMP 5.0 mg/kg, OLB-3 13.32 mg/kg, mean±SEM, n=6
Protocol: (§1) Mice of a normal control group (WT) and model mice were given normal saline 10 ml/kg/d, Losartan 15 mg/kg/d, TMP (5.0 mg/kg, 0.037 mmol/kg), and OLB-3 (13.32 mg/kg, 0.037 mmol/kg), at a volume of 10 mL/kg, once/d, for continuous administration of 56 d, blood lipids and blood glucose related indexes were measured after blood collection. Data were presented as mean±SEM; n=6 per group.

db/db mice [2] = experiment: Biochemical and metabolic indicators in db/db mice, 56 d administration; format: in vivo; details: Losartan 15 mg/kg/d, TMP 5.0 mg/kg, OLB-3 13.32 mg/kg, n=6; for Urine albumin/creatinine: once/d for 56 d, mean, SEM
SH-SY5Y cells = experiment: MTT assay of SH-SY5Y cell death caused by OGD; format: cell-based; details: 4 h OGD, FIG. 1
Protocol: A neuroprotective effect of tetramethylpyrazine (TMP) and derivatives thereof was evaluated by MTT assay. Cells were incubated, cells in the logarithmic growth phase were collected, a concentration of a cell suspension was adjusted, an MTT-containing medium was added after dosing treatment and 4 h of incubation with OGD, incubation was conducted for 4 h, the medium in the wells was carefully removed, and 150 μl of dimethyl sulfoxide (DMSO) was added to each well, followed by shaking at a low speed for 10 min on a shaker to fully dissolve crystals, and an absorbance value of each well was measured at an OD (absorbance) value of 490 nm of an enzyme-linked immunosorbent assay instrument (at the same time, a zero adjustment well (medium, MTT, DMSO) and a control well (cells, a drug dissolution medium with the same concentration, medium, MTT, DMSO) were set). Data were presented as mean±SEM; n=8 per group.

[3] = system: SH-SY5Y neuroblastoma cells; experiment: LPS-induced inflammatory factors in differentiated SH-SY5Y cells (ELISA); format: cell-based; details: 24 h, mean±SEM, n=8; for TNF-alpha: supernatant
Protocol: (§2) The SH-SY5Y cells were recovered and incubated, and the cells in the logarithmic growth phase were taken. After 24 h of incubation, SH-SY5Y neuroblastoma cells were treated with 1 μM all-trans retinoic acid to induce differentiation, and then inoculated into a 6-well culture dish for 24 h of incubation. Then, 0.2 μM (L) or 1 μM (H) OLB-3 and 1 μg/mL LPS were added to the medium, and treated for 24 h, a supernatant medium was aspirated, and changes of inflammatory factors and oxidative stress-related proteins were measured by an ELISA kit. Data were presented as mean±SEM; n=8 per group.

[4] = system: SH-SY5Y neuroblastoma cells; experiment: LPS-induced oxidative stress-related proteins in differentiated SH-SY5Y cells (ELISA); format: cell-based; details: 24 h, mean±SEM, n=8
Protocol: as §2

db/db mice [5] = experiment: Urinary protein level in db/db mice; format: in vivo; details: OLB-3 13.32 mg/kg once/d for 56 d, FIG. 2
Protocol: as §1, with “10” for “15”, “m/kg,” for “mL/kg,”, “urine protein levels” for “blood lipids and blood glucose related indexes”, “urine” for “blood”

5*FAD mice [6] = experiment: Novel object recognition in 5*FAD mice; format: in vivo; details: 6-month-old 5*FAD mice treated 3 months; 2.63 and 13.32 mg/kg; FIG. 3
Protocol: (§3) 6-month-old 5*FAD mice were treated with OLB-3 for 3 months, and novel object recognition and Y-maze behavior were measured. Novel object recognition: during a training phase, the mice were exposed in a chamber to become familiar with two identical objects (A+A) for 5 min; during a testing phase, one of the familiar objects was replaced with another novel object (A+B), and the mice were put back in the chamber to detect probe objects for 5 min, while recording video and tracking the mice in real time. Probing was defined as a mouse with its nose pointed towards the object, sniffing or touching with its nose, and a distance of ≤2 cm was recorded from the nose to the object. A discriminant index (DI) is used to explore each object, and a calculation method thereof was as follows: (exploration time for new object−exploration time for old object)/(exploration time for new object+exploration time for old object)*100. Y-maze: an animal was placed at an end of one arm, and the sequence of the animals entering into each arm was recorded within 10 min. […] The 5*FAD mice were treated with low dosage (2.63 mg/kg, 0.007 mmol/kg, the same below) and high dosage (13.32 mg/kg, 0.037 mmol/kg, the same below) of the OLB-3 separately. Data were presented as mean±SEM; n=9-10 per group.

5*FAD mice [7] = experiment: Y-maze in 5*FAD mice; format: in vivo; details: 6-month-old 5*FAD mice treated 3 months; 2.63 and 13.32 mg/kg; FIG. 4
Protocol: as §3

[8] = system: 6-OHDA Parkinson's disease rats; experiment: APO-induced rotations in 6-OHDA Parkinson's disease rats; format: in vivo; details: APO-induced 6-OHDA rats, 2 weeks of treatment; levodopa 25 mg/kg; FIG. 5
Text: There was no rotations in a sham-operated group, and there was no significant difference between the groups injected with 6-OHDA, with about 180 rotations. […] Data were presented as mean±SEM; n=10 per group.

ALS (SOD-G93A) mice [9] = experiment: Pole climbing test in ALS transgenic mice; format: in vivo; details: riluzole 5 mg/kg, FIG. 6
Text: The pole climbing test is generally used to evaluate a movement coordination ability, movement delay of the limbs in mice, and muscle strength. A homemade wooden pole about 50 cm long and about 1 cm in diameter was wrapped with medical gauze to increase friction of the wooden pole. The wooden pole was put vertically on a horizontal table, the mouse tail was grabbed such that the mouse head was facing down, with limbs grabbing a top of the pole; the timer was started after releasing the mouse tail, and it was ensured that the mouse crawled downward without external force, and the time was recorded for the mouse to climb from the top of the pole to a bottom platform (a standard was that mouse hind limbs were landed on the ground). […] The average value of the mouse's three pole climbing times was calculated as the final pole climbing time. […] Data were presented as mean±SEM; n=10 per group.

ALS (SOD-G93A) mice [10] = experiment: Limb grip force test in ALS transgenic mice; format: in vivo; details: riluzole 5 mg/kg, FIG. 7
Protocol: The limb grip force test is used directly to assess muscle strength of mice and the incidence of mice. […] After the start of administration, the grip force of the mice was tested every two weeks, and the measurement was repeated three times for each mouse, and the maximum value among the three results was taken as a maximum grip force of the mice. […] Data were presented as mean±SEM; n=10 per group.

[11] = Table 3, once/d for 56 d, Losartan 15 mg/kg/d
[12] = once/d for 56 d, Losartan 15 mg/kg/d
[13] = (H) high concentration (OLB-3 1 μM) + 1 μg/mL LPS
[14] = (L) low concentration (OLB-3 0.2 μM) + 1 μg/mL LPS

Question: CCCCc1nc(Cl)c(CO)n1Cc1ccc(-c2ccccc2-c2nn[nH]n2)cc1 [Losartan, reference compound] was tested. Which Creatinine (db/db mice [1]; [11]) did it give?
Answer: 42.12 ± 1.72(c) μmol/L

Question: And the Total cholesterol (db/db mice [1]; [12])?
Answer: 6.76 ± 0.46(c) mM

Question: What about the Creatinine (db/db mice [2]; Table 4, once/d for 56 d) of the same compound?
Answer: 42.12 ± 1.72(c) μmol/L

Question: What about the Urine albumin/creatinine (db/db mice [2]) of the same compound?
Answer: 582.74 ± 97.82(c) mg/g

Question: Cc1nc(C)c(C(=O)OCOC(=O)OCCc2ccc(O)cc2)nc1C [OLB-3] was tested. Which “death of SH-SY5Y cells caused by OGD (MTT)” value (SH-SY5Y cells) did it give?
Answer: significantly reduce the death of SH-SY5Y cells caused by OGD

Question: What about the TNF-alpha [3, 13] of the same compound?
Answer: 4.19 ± 0.77(c) pg/ml

Question: What about the IL1 [3, 13] of the same compound?
Answer: 4.27 ± 0.58(c) pg/ml

Question: And the IL6 [3, 13]?
Answer: 5.13 ± 0.63(c) pg/ml

Question: What about the TNF-alpha [3, 14] of the same compound?
Answer: 7.34 ± 1.38(c) pg/ml

Question: And the IL1 [3, 14]?
Answer: 8.76 ± 1.56(c) pg/ml

Question: What about the IL6 [3, 14] of the same compound?
Answer: 9.34 ± 1.67(b) pg/ml

Question: And the GSH-Px [4, 13]?
Answer: 17.51 ± 1.17(c) umol/mg

Question: What about the MDA [4, 13] of the same compound?
Answer: 6.71 ± 0.51(c) nmol/mg

Question: What about the SOD [4, 13] of the same compound?
Answer: 18.27 ± 1.02(c) nU/ml

Question: And the GSH-Px [4, 14]?
Answer: 13.21 ± 1.92(c) umol/mg

Question: And the MDA [4, 14]?
Answer: 11.10 ± 0.78(c) nmol/mg

Question: What about the SOD [4, 14] of the same compound?
Answer: 14.96 ± 1.32(c) nU/ml

Question: What about the Creatinine (db/db mice [1]; [11]) of the same compound?
Answer: 42.42 ± 2.73(c) μmol/L

Question: And the Urea (db/db mice [1]; [11])?
Answer: 7.42 ± 0.31(c) mmol/L

Question: And the Total cholesterol (db/db mice [1]; [12])?
Answer: 4.15 ± 0.18(c) mM

Question: And the Triglyceride (db/db mice [1]; [12])?
Answer: 9.61 ± 0.57(c) mg/dL

Question: And the Glucose determination (db/db mice [1]; once/d for 56 d)?
Answer: 17.26 ± 1.42(c) mM

Question: What about the Glycated hemoglobin (db/db mice [1]; once/d for 56 d) of the same compound?
Answer: 517.83 ± 47.26(c) nmol/L

Question: And the High-density lipoprotein cholesterol (db/db mice [1]; once/d for 56 d)?
Answer: 1.62 ± 0.11(c) mM

Question: And the Low-density lipoprotein cholesterol (db/db mice [1]; once/d for 56 d)?
Answer: 0.52 ± 0.02(c) mM

Question: What about the Creatinine (db/db mice [2]; Table 4, once/d for 56 d) of the same compound?
Answer: 42.42 ± 2.73(c) μmol/L

Question: And the Urea (db/db mice [2]; Table 4, once/d for 56 d)?
Answer: 7.42 ± 0.31(c) mmol/L

Question: What about the Urine albumin/creatinine (db/db mice [2]) of the same compound?
Answer: 443.82 ± 78.34(c) mg/g

Question: What about the urinary protein levels (db/db mice [5]) of the same compound?
Answer: significantly reduced urinary protein levels

Question: And the “time ratio to explore novel objects” value (5*FAD mice [6])?
Answer: significantly increase a time ratio to explore novel objects

Question: And the “time ratio in a novel different arm” value (5*FAD mice [7])?
Answer: significantly increase a time ratio in a novel different arm

Question: What about the number of rotations [8] of the same compound?
Answer: effectively reduce the number of rotations

Question: And the “pole climbing time / bradykinesia” value (ALS (SOD-G93A) mice [9])?
Answer: significantly improve the symptoms of bradykinesia

Question: And the limb grip force (ALS (SOD-G93A) mice [10])?
Answer: effectively increase the limb force of mice

Question: For Cc1nc(C)c(C)nc1C [TMP, Tetramethylpyrazine, reference compound], which Urine albumin/creatinine (db/db mice [2]) is on record?
Answer: 661.82 ± 89.54 mg/g

Question: What does the source list for CN(C)C(=N)N=C(N)N [metformin, reference compound]?
Answer: Glycated hemoglobin (db/db mice [1]; once/d for 56 d): 628.52 ± 50.59(c) nmol/L; High-density lipoprotein cholesterol (db/db mice [1]; once/d for 56 d): 2.19 ± 0.12(a) mM; Low-density lipoprotein cholesterol (db/db mice [1]; once/d for 56 d): 0.59 ± 0.02(c) mM

Question: Which “pole climbing time / bradykinesia” value (ALS (SOD-G93A) mice [9]) does the source give for Nc1nc2ccc(OC(F)(F)F)cc2s1 [riluzole, reference compound] here?
Answer: significantly improve the symptoms of bradykinesia

Question: And the limb grip force (ALS (SOD-G93A) mice [10])?
Answer: effectively increase the limb force of mice
